From US20130225548A1, “Pyridine Derivative and Medicinal Agent” (NIPPON SHINYAKU CO., LTD., priority 2010, published 2013)
Counter-ions that a name gives are not always drawn.

target: T1, Syk tyrosine kinase (Homo sapiens, UniProt P43405); assay: Test for Syk tyrosine kinase inhibitory activity (ELISA); type: biochemical; settings: Syk tyrosine kinase (Carna Biosciences), 25 μM ATP in substrate solution, 30° C. 1 hour, n=2; read-out: Evaluation (IC50, concentration inhibiting the tyrosine kinase activity at 50%)
T1 construct: purchased Carna Biosciences, Inc
In short: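 Syk kinase (0.025 nM stock before addition) with 625 nM biotinylated peptide and 25 μM ATP (substrate-solution levels) in Tris pH 7.5, MgCl2, DTT; 1 h at 30 °C on streptavidin plates. Phosphotyrosine detected by HRP anti-pTyr antibody, TMB, A450; IC50 by non-linear regression.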

Compound	IC50
CC(C)(CO)Cn1cnc2cc(-c3cc(C4CC4)cc(Nc4cc(C#N)ccn4)n3)ccc21 [Example 119, 2-({4-cyclopropyl-6-[1-(3-hydroxy-2,2-dimethylpropyl)-1H-benzimidazol-5-yl]pyridin-2-yl}amino)pyridine-4-carbonitrile hydrochloride]	50 to 500 nM
N#Cc1ccnc(Nc2cc(C3CC3)cc(-c3ccc4c(c3)ncn4CC3(O)CCCCC3)n2)c1 [Example 120, 2-[(4-cyclopropyl-6-{1-[(1-hydroxycyclohexyl)methyl]-1H-benzimidazol-5-yl}pyridin-2-yl)amino]pyridine-4-carbonitrile hydrochloride]	50 to 500 nM
CCOC(=O)CCn1cnc2cc(-c3cc(C4CC4)cc(Nc4cc(C#N)ccn4)n3)ccc21 [Example 123, ethyl 3-(5-{6-[(4-cyanopyridin-2-yl)amino]-4-cyclopropylpyridin-2-yl}-1H-benzimidazol-1-yl)propanonate hydrochloride]	50 to 500 nM
CN(C)C(=O)CCn1cnc2ccc(-c3cc(C4CC4)cc(Nc4cc(C#N)ccn4)n3)cc21 [Example 125, 3-(6-{6-[(4-cyanopyridin-2-yl)amino]-4-cyclopropylpyridin-2-yl}-1H-benzimadazol-1-yl)-N,N-dimethylpropanamide hydrochloride]	50 to 500 nM
COC(=O)CCn1cnc2ccc(-c3cc(C4CC4)cc(Nc4cc(C#N)ccn4)n3)cc21 [Example 126, methyl 3-(6-{6-[(4-cyanopyridin-2-yl)amino]-4-cyclopropylpyridin-2-yl}1H-benzimidazol-1-yl)propanonate hydrochloride]	50 to 500 nM
N#Cc1ccnc(Nc2cc(C3CC3)cc(-c3ccc4ncn(CCCCO)c4c3)n2)c1 [Example 127, 2-({4-cyclopropyl-6-[1-(4-hydroxybutyl)-1H-benzimidaxol-6-yl]pyridin-2-yl}amino)pyridine-4-carbonitrile hydrochloride]	5 to 50 nM
N#Cc1ccnc(Nc2cc(C3CC3)cc(-c3ccc4ncn(Cc5cccnc5)c4c3)n2)c1 [Example 130, 2-({4-cyclopropyl-6-[1-(pyridin-3-ylmethyl)-1H-benzimidazol-6-yl]pyridin-2-yl}amino)pyridine-4-carbonitrile hydrochloride]	50 to 500 nM
CN(C)C(=O)CCn1cnc2cc(-c3cc(C4CC4)cc(Nc4cc(C#N)ccn4)n3)ccc21 [Example 131, 3-(5-{6-[(4-cyanopyridin-2-yl)amino]-4-cyclopropylpyridin-2-yl}-1H-benzimidazol-1-yl)-N,N-dimethylproanamide hydrochloride]	50 to 500 nM
CNC(=O)CCn1cnc2cc(-c3cc(C4CC4)cc(Nc4cc(C#N)ccn4)n3)ccc21 [Example 132, 3-(5-{6-[(4-cyanopyridin-2-yl)amino]-4-cyclopropylpyridin-2-yl}-1H-benzimidazol-1-yl)-N-methylpropanamide hydrochloride]	50 to 500 nM
N#Cc1ccnc(Nc2cc(C3CC3)cc(-c3ccc4ncn(Cc5ccncc5)c4c3)n2)c1 [Example 133, 2-({4-cyclopropyl-6-[1-(pyridin-4-ylmethyl)-1H-benzimidazol-6-yl]pyridin-2-yl}amino)pyridine-4-carbonitrile hydrochloride]	5 to 50 nM
N#CCCn1cnc2cc(-c3cc(C4CC4)cc(Nc4cc(C#N)ccn4)n3)ccc21 [Example 134, 2-({6-[1-(2-cyanoethyl)-1H-benzimidazol-5-yl]-4-cyclopropylpyridin-2-yl}amino)pyridine-4-carbonitrile hydrochloride]	5 to 50 nM
N#Cc1ccnc(Nc2cc(C3CC3)cc(-c3ccc4ncn(C5CCC(F)(F)CC5)c4c3)n2)c1 [Example 136, 2-({4-cyclopropyl-6-[1-(4,4-difluorocyclohexyl)-1H-benzimidazol-6-yl]pyridine-2-yl}amino)pyridine-4-carbonitrile hydrochloride]	50 to 500 nM

Next, values leading:

IC50	Compound
< 5 nM	N#Cc1ccnc(Nc2cc(C3CC3)cc(-c3cncc(N4CCC[C@H](O)C4)c3)n2)c1 [Example 112, 2-({4-cyclopropyl-5′-[(3S)-3-hydroxypiperidin-1-yl]-2,3′-bipyridin-6-yl}amino)pyridine-4-carbonitrile hydrochloride]
5 to 50 nM	N#Cc1ccnc(Nc2cc(C3CC3)cc(-c3cncc(N4CCC[C@@H](O)C4)c3)n2)c1 [Example 113, 2-({4-cyclopropyl-5′-[(3R)-3-hydroxypiperidin-1-yl]-2,3′-bipyridin-6-yl}amino)pyridine-4-carbonitrile hydrochloride]
50 to 500 nM	Cn1cc(-c2cncc(-c3cc(C4CC4)cc(Nc4cc(C#N)ccn4)n3)c2)cn1 [Example 114, 2-{[4-cyclopropyl-5′-(1-methyl-1H-pyrazol-4-yl)-2,3′-bipyridin-6-yl]amino}pyridine-4-carbonitrile hydrochloride]
< 5 nM	N#Cc1ccnc(Nc2cc(C3CC3)cc(-c3cncc(N4CCNC(=O)C4)c3)n2)c1 [Example 115, 2-{[4-cyclopropyl-5′-(3-oxopiperazin-1-yl)-2,3′-bipyridin-6-yl]amino}pyridine-4-carbonitrile]
5 to 50 nM	N#Cc1ccnc(Nc2cc(C3CC3)cc(-c3cncc(N4CCC(O)CC4)c3)n2)c1 [Example 116, 2-{[4-cyclopropyl-5′-(4-hydroxypiperidin-1-yl)-2,3′-bipyridin-6-yl]amino}pyridine-4-carbontrile hydrochloride]
5 to 50 nM	N#Cc1ccnc(Nc2cc(C3CC3)cc(-c3ccc4c(c3)ncn4C(CO)CO)n2)c1 [Example 117, 2-({4-cyclopropy-6-[1-(1,3-dihydroxypropan-2-yl)-1H-benzimidazol-5-yl)]pyridin-2-yl}amino)pyridine-4-carbonitrile hydrochloride]
50 to 500 nM	CC(C)(O)Cn1cnc2cc(-c3cc(C4CC4)cc(Nc4cc(C#N)ccn4)n3)ccc21 [Example 118, 2-({4-cyclopropyl-6-[1-(2-hyroxy-2-methylpropyl)-1H-benzimidazol-5-yl]pyridin-2-yl}amino)pyridine-4-carbonitrile hydrochloride]
50 to 500 nM	N#Cc1ccnc(Nc2cc(C3CC3)cc(-c3ccc4c(c3)ncn4CCCO)n2)c1 [Example 121, 2-({4-cyclopropyl-6-[1-(3-hydroxypropyl)-1H-benzimidazol-5-yl]pyridin-2-yl}amino)pyridine-4-carbonitrile hydrochloride]
< 5 nM	N#Cc1ccnc(Nc2cc(C3CC3)cc(-c3ccc4ncn([C@H]5CC[C@H](O)CC5)c4c3)n2)c1 [Example 122, 2-({4-cyclopropyl-6-[1-(trans-4-hydroxycyclohexyl)-1H-benzimidazol-6-yl]pyridin-2-yl}amino)pyridine-4-carbonitrile hydrochloride]
5 to 50 nM	N#Cc1ccnc(Nc2cc(C3CC3)cc(-c3ccc4c(c3)ncn4CCC(N)=O)n2)c1 [Example 129, 3-(5-{6-[(4-cyanopyridin-2-yl)amino]-4-cyclopropylpyridin-2-yl}-1H-benzimidazol-1-yl)propanamide hydrochloride]
5 to 50 nM	N#Cc1ccnc(Nc2cc(C3CC3)cc(-c3ccc4ncn(C5(CO)CCCCC5)c4c3)n2)c1 [Example 135, 2-[(4-cyclopropyl-6-(1-[1-(hydroxymethyl)cyclohexyl]-1H-benzimidazol-6-yl)pyridin-2-yl)amino]pyridine-4-carbonitrile hydrochloride]
